Results published in US11584749B2, “Phosphor-tetrazine compound and use thereof” (Spark Biopharma, Inc., priority 2018, dated 2023).

Experiments:
[1] = system: microtubule (HeLa human cervical cancer cells); test: Fluorescence bio-imaging of microtubule in fixed HeLa cells pre-treated with Docetaxel-TCO conjugate; type: cell-based
Method: (§1) The fluorescence imaging test was performed using a DeltaVision Elite imaging system of GE Healthcare, and an Olympus IX-71 microscope was used.
Docetaxel-TCO conjugate (Dox-TCO) was used for fluorescence bio-imaging of microtubule. HeLa human cervical cancer cells were fixed, and cultured with Dox-TCO for 1 hour, and then washed with PBS.

[2] = system: mitochondria (HeLa cells); test: Fluorescence imaging of mitochondria in living HeLa cells pre-treated with TPP-TCO; type: cell-based, human
Method: as §1
In order to confirm the fluorescence imaging of mitochondria in living cells, it was tested by the following method.
HeLa cells were incubated for 1 hour in the presence or absence of triphenylphosphonium (TPP)-TCO, and then HeLa cells were washed and treated with the compound of Example 5 or Example 6.
In addition, in order to confirm the selectivity of TPP-TCO and Example 5, and TPP-TCO and Example 6 for mitochondria, HeLa cells were treated with MitoTracker Deep Red, a mitochondria coloring dye, As a result, it was observed that the position of the fluorescence signal of MitoTracker Deep Red was consistent with that of Example 5 or Example 6.

Question: Which “fluorescence signal on addition to cells” value ([1]; fixed HeLa cells cultured with Dox-TCO for 1 hour, washed with PBS) does the source give for `CCN(CC)c1ccc(-c2c3c(n4ccc(-c5nnc(C)nn5)cc24)C(=O)N(CCCN2CCN(C)CC2)C3)cc1` [Example 6, 9-(4-(diethylamino)phenyl)-7-(6-methyl-1,2,4,5-tetrazin-3-yl)-2-(3-(4-methylpiperazin-1-yl)propyl)-1,2-dihydro-3H-pyrrolo[3,4-b]indolizin-3-one] here?
Answer: The value was “a bright fluorescence signal was generated”.

Question: What about the “specificity of staining, immunofluorescence with α-tubulin antibody” value ([1]; fixed HeLa cells, Dox-TCO) of the same molecule?
Answer: The value was “microtubule specific staining”.

Question: What about the “position of fluorescence signal versus MitoTracker Deep Red” value ([2]; HeLa cells, TPP-TCO and compound) of the same molecule?
Answer: The value was “consistent”.

Question: And the fluorescence mitochondria image ([2]; living HeLa cells treated with TPP-TCO for 1 hour, then compound)?
Answer: The fluorescence mitochondria image was “a clear fluorescence mitochondria image was observed”.

Question: And the “fluorescence expression intensity in the extracellular region” value ([2]; living HeLa cells treated with TPP-TCO, then compound)?
Answer: The value was 0.
